From ChEMBL document CHEMBL5042492, “Noncovalent CDK12/13 dual inhibitors-based PROTACs degrade CDK12-Cyclin K complex and induce synthetic lethality with PARP inhibitor” (Eur J Med Chem, 2022)
Active and inactive are the calls of the source. The rule behind the calls is not given here.

Assays:
[1] = biological target: T1, Protein cereblon/Cyclin-K/Cyclin-dependent kinase 12 (Homo sapiens, UniProt O75909+Q9NYV4+Q96SW2); test: Protac activity at human CRBN/CDK12/CycK in human Bel-7402 cells assessed as downregulation of ATM measured after 6 hrs by RT-qPCR method; type: cell-based
T1 sequence (O75909 whole entry, looked up): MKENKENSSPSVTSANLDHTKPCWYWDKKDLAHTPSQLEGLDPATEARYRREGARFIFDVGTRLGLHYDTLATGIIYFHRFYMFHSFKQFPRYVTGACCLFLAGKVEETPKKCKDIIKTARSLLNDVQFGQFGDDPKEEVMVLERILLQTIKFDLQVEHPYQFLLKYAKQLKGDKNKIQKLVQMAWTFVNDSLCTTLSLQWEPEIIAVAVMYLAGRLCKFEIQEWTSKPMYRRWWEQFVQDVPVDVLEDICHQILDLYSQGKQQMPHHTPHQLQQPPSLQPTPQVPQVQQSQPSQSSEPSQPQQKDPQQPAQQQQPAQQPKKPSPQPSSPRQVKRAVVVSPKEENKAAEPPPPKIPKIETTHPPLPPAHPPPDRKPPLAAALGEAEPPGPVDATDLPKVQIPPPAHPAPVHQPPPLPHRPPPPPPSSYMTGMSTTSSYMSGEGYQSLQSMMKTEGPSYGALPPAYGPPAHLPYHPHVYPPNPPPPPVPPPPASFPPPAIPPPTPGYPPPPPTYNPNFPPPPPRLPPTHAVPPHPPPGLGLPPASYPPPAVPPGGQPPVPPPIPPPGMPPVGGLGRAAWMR
T1 sequence (Q96SW2 whole entry, looked up): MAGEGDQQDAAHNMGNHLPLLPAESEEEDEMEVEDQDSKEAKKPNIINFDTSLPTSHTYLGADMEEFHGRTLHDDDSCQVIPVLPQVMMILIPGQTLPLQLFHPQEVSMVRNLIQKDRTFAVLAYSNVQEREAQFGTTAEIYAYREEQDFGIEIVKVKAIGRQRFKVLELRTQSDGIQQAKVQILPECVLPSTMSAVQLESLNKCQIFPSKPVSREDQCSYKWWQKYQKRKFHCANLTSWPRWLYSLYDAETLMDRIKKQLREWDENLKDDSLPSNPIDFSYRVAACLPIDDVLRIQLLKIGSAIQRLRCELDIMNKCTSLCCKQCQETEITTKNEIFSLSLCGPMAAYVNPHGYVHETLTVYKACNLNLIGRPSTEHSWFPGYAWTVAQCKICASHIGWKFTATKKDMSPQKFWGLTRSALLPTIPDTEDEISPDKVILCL
T1 sequence (Q9NYV4 whole entry, looked up): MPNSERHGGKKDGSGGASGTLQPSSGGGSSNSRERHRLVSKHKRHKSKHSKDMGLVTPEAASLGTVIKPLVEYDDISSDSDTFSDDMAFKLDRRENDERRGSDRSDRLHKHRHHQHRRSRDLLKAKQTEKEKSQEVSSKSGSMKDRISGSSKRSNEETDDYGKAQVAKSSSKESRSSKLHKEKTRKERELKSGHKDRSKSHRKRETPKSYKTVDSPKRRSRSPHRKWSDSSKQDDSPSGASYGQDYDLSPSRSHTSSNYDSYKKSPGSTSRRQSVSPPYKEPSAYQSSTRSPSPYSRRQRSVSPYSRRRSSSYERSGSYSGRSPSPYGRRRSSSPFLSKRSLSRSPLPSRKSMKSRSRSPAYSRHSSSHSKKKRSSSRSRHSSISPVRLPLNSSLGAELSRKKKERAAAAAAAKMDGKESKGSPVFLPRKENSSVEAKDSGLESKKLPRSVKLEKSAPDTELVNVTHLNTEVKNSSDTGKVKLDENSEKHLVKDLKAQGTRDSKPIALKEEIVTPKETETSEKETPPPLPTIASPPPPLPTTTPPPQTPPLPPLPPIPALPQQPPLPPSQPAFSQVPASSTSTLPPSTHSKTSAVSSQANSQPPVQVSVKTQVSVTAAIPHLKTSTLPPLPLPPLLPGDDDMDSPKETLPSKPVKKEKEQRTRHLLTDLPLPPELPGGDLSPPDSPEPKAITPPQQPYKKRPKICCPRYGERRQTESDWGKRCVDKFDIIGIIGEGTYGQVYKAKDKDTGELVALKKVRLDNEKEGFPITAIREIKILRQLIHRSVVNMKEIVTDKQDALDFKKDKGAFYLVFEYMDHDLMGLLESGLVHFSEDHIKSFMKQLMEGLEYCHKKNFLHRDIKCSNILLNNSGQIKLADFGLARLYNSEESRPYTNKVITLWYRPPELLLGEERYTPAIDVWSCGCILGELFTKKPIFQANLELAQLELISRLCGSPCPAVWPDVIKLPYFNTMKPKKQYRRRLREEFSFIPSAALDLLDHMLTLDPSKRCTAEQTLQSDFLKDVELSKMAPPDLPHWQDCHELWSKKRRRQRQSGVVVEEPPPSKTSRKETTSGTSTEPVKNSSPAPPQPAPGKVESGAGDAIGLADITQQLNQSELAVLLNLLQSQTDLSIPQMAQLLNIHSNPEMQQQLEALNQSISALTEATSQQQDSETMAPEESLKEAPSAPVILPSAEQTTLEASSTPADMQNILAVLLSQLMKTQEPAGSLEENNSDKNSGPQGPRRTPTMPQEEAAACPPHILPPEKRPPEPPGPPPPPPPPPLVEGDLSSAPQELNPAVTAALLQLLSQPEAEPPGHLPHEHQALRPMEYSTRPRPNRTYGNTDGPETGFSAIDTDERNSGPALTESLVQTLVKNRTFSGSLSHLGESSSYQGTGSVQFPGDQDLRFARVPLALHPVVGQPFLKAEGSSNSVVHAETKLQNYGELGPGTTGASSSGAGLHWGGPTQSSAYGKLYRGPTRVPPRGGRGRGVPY

[2] = biological target: T1, Protein cereblon/Cyclin-K/Cyclin-dependent kinase 12; test: Protac activity at human CRBN/CDK12/CycK in human MDA-MB-231 cells assessed as downregulation of Mcl-1 level upto 30 uM measured after 24 hrs by Western blotting assay; type: cell-based; settings: dose microM <=30, time 24.0 hrs
[3] = biological target: T1, Protein cereblon/Cyclin-K/Cyclin-dependent kinase 12; test: Protac activity at human CRBN/CDK12/CycK in human Bel-7402 cells assessed as degradation of CDK12 at 3 uM measured after 24 hrs by Western blotting assay; type: cell-based
[4] = biological target: T1, Protein cereblon/Cyclin-K/Cyclin-dependent kinase 12; test: Protac activity at human CRBN/CDK12/CycK in human MDA-MB-231 cells assessed as degradation of GSPT1 up to 30 uM measured after 24 hrs by Western blotting assay; type: cell-based; settings: dose microM <=30, time 24.0 hrs
[5] = biological target: T1, Protein cereblon/Cyclin-K/Cyclin-dependent kinase 12; test: Protac activity at human CRBN/CDK12/CycK in human MDA-MB-231 cells assessed as downregulation of ATR measured after 6 hrs by RT-qPCR method; type: cell-based
[6] = biological target: Protein cereblon/Cyclin-dependent kinase 13 (Homo sapiens) (UniProt Q14004+Q96SW2); test: Protac activity at human CRBN/CDK13 in human MDA-MB-231 cells assessed as degradation of CDK13 at 0.1 to 30 uM measured after 24 hrs by Western blotting assay; type: cell-based; settings: dose 0.1-30 µM
Sequence of Protein cereblon/Cyclin-dependent kinase 13 (Homo sapiens) (Q14004 whole entry, looked up, the tested form may be a part): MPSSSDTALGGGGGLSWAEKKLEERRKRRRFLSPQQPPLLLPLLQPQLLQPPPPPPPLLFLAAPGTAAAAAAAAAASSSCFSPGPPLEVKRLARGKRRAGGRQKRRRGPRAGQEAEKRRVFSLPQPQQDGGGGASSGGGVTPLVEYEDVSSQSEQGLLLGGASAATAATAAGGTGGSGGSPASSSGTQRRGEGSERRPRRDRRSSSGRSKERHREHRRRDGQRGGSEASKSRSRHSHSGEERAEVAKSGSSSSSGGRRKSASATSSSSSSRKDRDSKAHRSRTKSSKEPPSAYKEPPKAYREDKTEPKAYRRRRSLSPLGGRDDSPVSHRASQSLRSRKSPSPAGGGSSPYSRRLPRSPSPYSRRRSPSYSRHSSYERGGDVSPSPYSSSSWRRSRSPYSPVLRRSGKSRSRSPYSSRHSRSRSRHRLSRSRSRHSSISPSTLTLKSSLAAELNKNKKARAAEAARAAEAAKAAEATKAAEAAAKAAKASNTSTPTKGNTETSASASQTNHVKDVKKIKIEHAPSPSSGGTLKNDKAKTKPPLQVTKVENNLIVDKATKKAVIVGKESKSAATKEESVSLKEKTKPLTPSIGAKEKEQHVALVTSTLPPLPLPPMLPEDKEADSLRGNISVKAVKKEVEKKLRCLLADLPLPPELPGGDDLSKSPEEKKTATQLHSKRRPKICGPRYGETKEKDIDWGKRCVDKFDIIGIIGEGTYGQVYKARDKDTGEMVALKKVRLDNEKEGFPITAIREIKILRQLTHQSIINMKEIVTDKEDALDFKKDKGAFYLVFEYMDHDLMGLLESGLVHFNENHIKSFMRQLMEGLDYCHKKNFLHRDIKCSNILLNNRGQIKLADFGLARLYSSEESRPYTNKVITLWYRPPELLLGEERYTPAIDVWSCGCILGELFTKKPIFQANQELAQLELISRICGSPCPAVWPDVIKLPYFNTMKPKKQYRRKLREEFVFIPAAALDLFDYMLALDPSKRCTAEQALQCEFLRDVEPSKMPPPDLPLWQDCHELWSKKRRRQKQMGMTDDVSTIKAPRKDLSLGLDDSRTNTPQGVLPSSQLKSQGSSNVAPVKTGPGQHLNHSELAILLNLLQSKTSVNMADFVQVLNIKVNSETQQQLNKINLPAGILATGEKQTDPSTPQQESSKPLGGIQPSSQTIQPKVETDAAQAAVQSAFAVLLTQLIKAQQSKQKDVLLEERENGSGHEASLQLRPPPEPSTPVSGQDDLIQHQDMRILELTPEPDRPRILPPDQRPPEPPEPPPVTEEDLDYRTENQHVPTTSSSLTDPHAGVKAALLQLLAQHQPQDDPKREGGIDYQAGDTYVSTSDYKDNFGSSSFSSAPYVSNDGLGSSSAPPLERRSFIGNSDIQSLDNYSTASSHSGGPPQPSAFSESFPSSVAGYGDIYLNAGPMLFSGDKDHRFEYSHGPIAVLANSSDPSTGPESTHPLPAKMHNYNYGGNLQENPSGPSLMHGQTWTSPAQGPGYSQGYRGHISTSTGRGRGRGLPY
Sequence of Protein cereblon/Cyclin-dependent kinase 13 (Homo sapiens) (Q96SW2 whole entry, looked up, the tested form may be a part): as the sequence (Q96SW2 whole entry, looked up) above

[7] = biological target: CDK12/Cyclin K (Homo sapiens, UniProt Q9NYV4); test: Inhibition of human CDK12 (696 to 1082 residues) /cyclinK (1 to 300 residues) using ac-YSPTSPpSYSPTSFpS-YSPTSPpSY-[PEG2]-RR-amid peptide as substrate in presence of ATP measured after 2 hrs by ADP-Glo kinase assay; type: protein-complex assay
Sequence of CDK12/Cyclin K (O75909 whole entry, the tested form may be a part): as the sequence (O75909 whole entry, looked up) above
Sequence of CDK12/Cyclin K (Q9NYV4 whole entry, the tested form may be a part): as the sequence (Q9NYV4 whole entry, looked up) above

[8] = test system: MDA-MB-231; test: Synergistic antiproliferative activity against human MDA-MB-231 cells in presence of 1 uM of Olaparib at 1 uM for 10 days by SRB staining based clone formation assay relative to control; type: functional; settings: MDA-MB-231, 240 h, time 10 day
[9] = biological target: T1, Protein cereblon/Cyclin-K/Cyclin-dependent kinase 12; test: Protac activity at human CRBN/CDK12/CycK in human Bel-7402 cells assessed as degradation of CK1alpha upto 30 uM measured after 24 hrs by Western blotting assay; type: cell-based; settings: dose microM <=30, time 24.0 hrs
[10] = test system: MDA-MB-231; test: Synergistic antiproliferative activity against human MDA-MB-231 cells in presence of 1 uM of Olaparib at 3 uM measured after 10 days by SRB staining based clone formation assay relative to control; type: functional; settings: MDA-MB-231, 240 h, time 10 day
[11] = biological target: T1, Protein cereblon/Cyclin-K/Cyclin-dependent kinase 12; test: Protac activity at human CRBN/CDK12/CycK in human MDA-MB-231 cells assessed as degradation of CDK12 at 1 to 3 uM for 24 hrs in presence of MG132 by Western blotting assay; type: cell-based; settings: dose 1-3 µM
[12] = biological target: T1, Protein cereblon/Cyclin-K/Cyclin-dependent kinase 12; test: Protac activity at human CRBN/CDK12/CycK in human MDA-MB-231 cells assessed as degradation of Cyclin T1 up to 30 uM measured after 24 hrs by Western blotting assay; type: cell-based; settings: dose microM <=30, time 24.0 hrs
[13] = biological target: T1, Protein cereblon/Cyclin-K/Cyclin-dependent kinase 12; test: Protac activity at human CRBN/CDK12/CycK in human MDA-MB-231 cells assessed as RNAP2 CTD Ser2 phosphorylation level at 0.1 to 30 uM measured after 24 hrs by Western blotting assay; type: cell-based; settings: dose 0.1-30 µM
[14] = test system: MDA-MB-231; test: Synergistic antiproliferative activity against human MDA-MB-231 cells in presence of 3 uM of Olaparib at 3 uM measured after 10 days by SRB staining based clone formation assay relative to control; type: functional; settings: MDA-MB-231, 240 h, time 10 day
[15] = test system: MDA-MB-231; test: Antiproliferative activity against human MDA-MB-231 cells at 1 uM for 10 days by SRB staining based clone formation assay relative to control; type: functional; settings: MDA-MB-231, 240 h, time 10 day
[16] = biological target: T1, Protein cereblon/Cyclin-K/Cyclin-dependent kinase 12; test: Protac activity at human CRBN/CDK12/CycK in human Bel-7402 cells assessed as RNAP2 CTD Ser2 phosphorylation level at 0.1 to 30 uM measured after 24 hrs by Western blotting assay; type: cell-based; settings: dose 0.1-30 µM
[17] = biological target: T1, Protein cereblon/Cyclin-K/Cyclin-dependent kinase 12; test: Protac activity at human CRBN/CDK12/CycK in human Bel-7402 cells assessed as degradation of GSPT1 upto 30 uM measured after 24 hrs by Western blotting assay; type: cell-based; settings: dose microM <=30, time 24.0 hrs
[18] = biological target: T1, Protein cereblon/Cyclin-K/Cyclin-dependent kinase 12; test: Protac activity at human CRBN/CDK12/CycK in human MDA-MB-231 cells assessed as degradation of CK1alpha up to 30 uM measured after 24 hrs by Western blotting assay; type: cell-based; settings: dose microM <=30, time 24.0 hrs
[19] = test system: MDA-MB-231; test: Antiproliferative activity against human MDA-MB-231 cells at 3 uM for 10 days by SRB staining based clone formation assay relative to control; type: functional; settings: MDA-MB-231, 240 h, time 10 day
[20] = biological target: T1, Protein cereblon/Cyclin-K/Cyclin-dependent kinase 12; test: Protac activity at human CRBN/CDK12/CycK in human MDA-MB-231(CRBN/KO) cells assessed as degradation of CDK12 measured after 24 hrs by Western blotting assay; type: cell-based
[21] = biological target: T1, Protein cereblon/Cyclin-K/Cyclin-dependent kinase 12; test: Protac activity at human CRBN/CDK12/CycK in human MDA-MB-231 cells assessed as degradation of Cyclin H up to 30 uM measured after 24 hrs by Western blotting assay; type: cell-based; settings: dose microM <=30, time 24.0 hrs
[22] = biological target: T1, Protein cereblon/Cyclin-K/Cyclin-dependent kinase 12; test: Protac activity at human CRBN/CDK12/CycK in human Bel-7402 cells assessed as degradation of CycK at 1 to 3 uM for 24 hrs in presence of MG132 by Western blotting assay; type: cell-based; settings: dose 1-3 µM
[23] = biological target: T1, Protein cereblon/Cyclin-K/Cyclin-dependent kinase 12; test: Protac activity at human CRBN/CDK12/CycK in human Bel-7402 cells assessed as degradation of Cyclin H upto 30 uM measured after 24 hrs by Western blotting assay; type: cell-based; settings: dose microM <=30, time 24.0 hrs
[24] = test system: MDA-MB-231; test: Synergistic antiproliferative activity against human MDA-MB-231 cells in presence of 1 uM of Olaparib at 3 uM measured after 10 days by Chou-Talalay method; type: functional; settings: time 10 day
[25] = biological target: T1, Protein cereblon/Cyclin-K/Cyclin-dependent kinase 12; test: Protac activity at human CRBN/CDK12/CycK in human Bel-7402 cells assessed as degradation of CDK7 up to 30 uM measured after 24 hrs by Western blotting assay; type: cell-based; settings: dose microM <=30, time 24.0 hrs

Activity [1]: Active
Activity [2]: inactive
Activity [3]: Active
Activity [4]: inactive
Activity [5]: Active
Activity [6]: inactive
IC50 [7]: 645 nM
Activity [9]: inactive
Activity [11]: inactive
Activity [12]: inactive
Activity [13]: Active
Activity [16]: Active
Activity [17]: inactive
Activity [18]: inactive
Activity [20]: inactive
Activity [21]: inactive
Activity [22]: inactive
Activity [23]: inactive
Activity [25]: inactive
SMILES: CC(C)n1cnc2c(NCc3nc4cc(F)c(NCCCCCCCCNC(=O)COc5cccc6c5C(=O)N(C5CCC(=O)NC5=O)C6=O)cc4[nH]3)nc(N3CCOCC3)nc21 (stereo not given)
inhibition at 1 µM [8]: 67.8%
inhibition at 3 µM [10]: 99.2%
inhibition at 3 µM [14]: 99.8%
inhibition at 1 µM [15]: 1.05%
inhibition at 3 µM [19]: 6.47%
CI [24]: 0.29
